{"source": "patent US20100152129A1", "about": "(priority 2008, published 2010)", "key": {"Panc-1 cells [1]": {"tested_on": "Panc-1 cells", "assay": "Cell cycle analysis by DNA content (propidium iodide, flow cytometry)", "format": "cell-based", "settings": "control 5.5%", "method": "Understanding the status of cells cycles G1, S, G2 and M is indicative of the cytotoxic effect including apoptosis and DNA damage of anticancer drugs. In the current study FACS was used to measure the cell cycle stages in Panc 1 cells after exposure to anticancer drugs including drug combination. The synergistic effect of Gemcitabine with […]-00 on Panc-1 cancer cells was analyzed using propidium iodide based cell cycle analysis where total population of cells was sorted as sub G0, G1, S and G2/M populations according to total fluorescent intensity. […]-00 at a final concentration of 60 nM, 240 nM and 480 nM and Gemcitabine at a final concentration of 1 nM, 3 nM and 10 nM were analyzed in single dose and in all possible combinations of the dose range for the Gemcitabine and […]-00. Panc-1 cells were treated with Gemcitabine for 0 to 24 hrs. After 24 hrs the cells were washed twice with plain MEM. Fresh MEM with 10% serum (2 mL/well) was added to the wells, followed by treatment with […]-00 for 24 hrs to 96 hrs. After 96 hrs the treated cells were harvested, fixed, stained with propidium iodide and analyzed for specific cell arrest using DNA content analysis by flow cytometry. Adherent cells were trypsinized and washed with PBS or HBSS without Ca++ and Mg++ containing EDTA pH 8.0 and BSA. They were further isolated, centrifuged and total number of cells were counted and recorded. […]"}, "Panc1 cells": {"tested_on": "Panc1 cells", "settings": "human"}, "Panc-1 cells [2]": {"tested_on": "Panc-1 cells", "assay": "CCK-8 based cytotoxicity assay", "format": "cell-based", "settings": "Gem 10 nM", "excerpt": "CCK-8 based cytotoxicity assay is a sensitive nonradioactive colorimetric assay for determining the number of viable cells in cell proliferation and cytotoxicity assays. WST-8 (2-(2-methoxy-4-nitrophenyl)-3-(4-nitrophenyl)-5-(2,4-disulfophenyl)-2H tetrazolium, monosodium salt) is bioreduced by cellular dehydrogenases to an orange formazan product that is soluble in tissue culture medium. The amount of formazan produced is directly proportional to the number of living cells.\nTest System: The Panc-1 cell line was procured from ATCC (American Tissue type Culture Collection USA, catalog number: CRL-1469) and the frozen vial was stored in liquid nitrogen container.\nPanc-1 cells were seeded at a density of 3000 cells/well in a 96 well plate and allowed to recover for 24 hrs in a CO2 incubator at 37° C. […] The final DMSO concentration was 0.5% in wells. Plates were incubated for 24, 48, and 72 hrs. At the end of incubation CCK-8 was added and kept at 37° C. for 3 hrs following which absorbance was measured at 450 nm."}}, "note": "Like-named read-outs stand apart in the source and are kept apart here."}
{"smiles": "Nc1ccn([C@@H]2O[C@H](CO)[C@@H](O)C2(F)F)c(=O)n1", "note": "[Gemcitabine, 2′, 2′-difluorodeoxycytidine]", "values": [{"measurement": "population of cells in sub G0 (apoptotic cells)", "setting": "Panc-1 cells [1]; 1 nM alone", "result": 16.85, "unit": "%"}, {"measurement": "% Cytotoxicity in Panc1 cells", "setting": "Panc1 cells; 6 h", "result": 2.31, "unit": "%"}, {"measurement": "% Cytotoxicity in Panc1 cells", "setting": "Panc1 cells; 16 h", "result": 6.54, "unit": "%"}, {"measurement": "% Cytotoxicity in Panc1 cells", "setting": "Panc1 cells; 36 h", "result": 7.23, "unit": "%"}, {"measurement": "% Cytotoxicity", "setting": "Panc-1 cells [2]; 24 hrs", "result": 21.997, "unit": "%"}, {"measurement": "% Cytotoxicity", "setting": "Panc-1 cells [2]; 48 hrs", "result": 27.571, "unit": "%"}, {"measurement": "% Cytotoxicity", "setting": "Panc-1 cells [2]; 72 hrs", "result": 31.47, "unit": "%"}, {"measurement": "% Cytotoxicity", "setting": "Panc-1 cells [2]; 72 hrs, listed as Gem", "result": 31.471, "unit": "%"}]}
{"smiles": "CN1CC[C@@H](c2c(O)cc(O)c3c(=O)cc(-c4ccccc4Cl)oc23)[C@@H]1CO.Cl", "note": "(relative stereo) [P276-00, (+)-trans-2-(2-Chloro-phenyl)-5,7-dihydroxy-8-(2-hydroxy-methyl-1-methyl-pyrrolidin-3-y1)-chromen-4-one hydrochloride]", "values": [{"measurement": "population of cells in sub G0 (apoptotic cells)", "setting": "Panc-1 cells [1]; 60 nM alone", "result": 17.6, "unit": "%"}]}
